Test results published in patent publication US20140057284A1, “PHOTOLUMINESCENT MOLECULAR COMPLEX AND METHOD FOR DETERMINING OF THE CONCENTRATION OF SAID MOLECULAR COMPLEX” (priority 2011, published 2014).

Tests used:
[1] = molecular target: catalytic subunit of cAMP-dependent protein kinase (PKAc) (Homo sapiens, UniProt P17612); test: Binding affinity to PKAc; settings: PKAc and some other PKs of the AGC group; in words
[2] = tested on: PKAc in living C9H6 cells; test: Monitoring of kinase activity in living cells loaded with ARC-1139; type: cell-based; settings: H89 100 μM added after Forskolin
Experimental: CHO, C9H6 and HEK cells were cultured in F12 Nutrient Mixture supplemented with 10% fetal bovine serum, 2 mM L-glutamine, 100 U/ml penicillin and 100 μg/ml streptomycin at 37° C. in humidified atmosphere containing 5% CO2. In case of C9H6 cells, 300 μg/ml of Zeocine™ and 800 μg/ml of Geneticin® were additionally introduced to the nutrient mixture. Cells were seeded to 96-well plates (for plate reader experiments) and grown to 60%-80% confluency. The medium was replaced with fresh serum-free medium containing the luminescent probe ARC-1139 (10 μM) and incubated for 1 hour at 37° C. Subsequently, the cells were washed three times with PBS and analyzed on a PheraStar platereader with TRF optic modules [ex. 337(50) nm, em. 675(50) and 620(20) nm] using the time-resolved fluorescence measurement mode. Forskolin (final concentration of 25 μM) and H89 (final concentration of 100 μM) were added to the cells during the measurement (after 3 min and 7 min from the start of data acquisition, respectively)

PKAc = PKAc (Homo sapiens, UniProt P17612); test: Measurement of dissociation kinetics of inhibitor-kinase complexes with ARC-1063; type: binding; settings: inhibitor 5-10 nM, PKAc 10 nM, 27° C., ARC-1063 100-300 nM
Experimental: Measurements of dissociation kinetics of non-labeled inhibitors from the inhibitor-kinase complexes (residence time) were carried out by mixing the solution of the examined inhibitor (5-10 nM) with PKAc (10 nM), and incubation of the solution for 15 min at 27° C., followed by addition of a high concentration of the luminescent probe ARC-1063 (final concentration of 100-300 nM), and measurement of the luminescence signal at 5 s time intervals (FIG. 10). The collected data were fitted to the first-order kinetic model yielding the dissociation rate constants for the examined inhibitors.

| SMILES | affinity of binding to PKAc [1] | further results |
| --- | --- | --- |
| N=C(N)NCCC[C@@H](NC(=O)CCCCCNC(=O)c1ccc(-c2ccnc(N)n2)s1)C(=O)NCCCCCC(=O)N[C@H](CCCNC(=N)N)C(=O)N[C@H](CCCNC(=N)N)C(=O)N[C@H](CCCNC(=N)N)C(=O)N[C@H](CCCNC(=N)N)C(=O)N[C@H](CCCNC(=N)N)C(=O)N[C@H](CCCNC(=N)N)C(=O)N[C@H](CCCCN)C(N)=O [ARC-668] | subnanomolar or low nanomolar |  |
| N=C(N)NCCC[C@@H](NC(=O)CCCCCNC(=O)c1ccc(-c2ccnc(N)n2)s1)C(=O)NCCCCCC(=O)N[C@H](CCCNC(=N)N)C(=O)N[C@H](CCCNC(=N)N)C(=O)N[C@H](CCCNC(=N)N)C(=O)N[C@H](CCCNC(=N)N)C(=O)N[C@H](CCCNC(=N)N)C(=O)N[C@H](CCCNC(=N)N)C(=O)N[C@H](CCCCNc1ccc([N+](=O)[O-])c2nonc12)C(N)=O [ARC-676] | subnanomolar or low nanomolar |  |
| N=C(N)NCCC[C@@H](NC(=O)[C@@H](CCCNC(=N)N)NC(=O)CCCCCNC(=O)[C@@H](CCCCN)NC(=O)CCCCCNC(=O)c1ccc(-c2ccncc2)s1)C(N)=O [ARC-1121] | subnanomolar or low nanomolar |  |
| Cc1nccc(-c2ccc(C(=O)NCCCCCC(=O)N[C@H](CCCNC(=N)N)C(=O)NCCCCCC(=O)N[C@H](CCCNC(=N)N)C(=O)N[C@H](CCCNC(=N)N)C(=O)N[C@H](CCCNC(=N)N)C(=O)N[C@H](CCCNC(=N)N)C(=O)N[C@H](CCCNC(=N)N)C(=O)N[C@H](CCCNC(=N)N)C(=O)N[C@H](CCCCN)C(N)=O)s2)n1 [ARC-1123] | subnanomolar or low nanomolar |  |
| N=C(N)NCCC[C@@H](NC(=O)CCCCCNC(=O)c1ccc(-c2ccncn2)s1)C(=O)NCCCCCC(=O)N[C@H](CCCNC(=N)N)C(=O)N[C@H](CCCNC(=N)N)C(=O)N[C@H](CCCNC(=N)N)C(=O)N[C@H](CCCNC(=N)N)C(=O)N[C@H](CCCNC(=N)N)C(=O)N[C@H](CCCNC(=N)N)C(=O)N[C@H](CCCCN)C(N)=O [ARC-1129] | subnanomolar or low nanomolar |  |
| N=C(N)NCCC[C@@H](NC(=O)CCCCCNC(=O)c1ccc(-c2ncnc3[nH]cnc23)s1)C(=O)NCCCCCC(=O)N[C@H](CCCNC(=N)N)C(=O)N[C@H](CCCNC(=N)N)C(=O)N[C@H](CCCNC(=N)N)C(=O)N[C@H](CCCNC(=N)N)C(=O)N[C@H](CCCNC(=N)N)C(=O)N[C@H](CCCNC(=N)N)C(=O)N[C@H](CCCCN)C(N)=O [ARC-1132] | subnanomolar or low nanomolar |  |
| N=C(N)NCCC[C@@H](NC(=O)CCCCCNC(=O)c1ccc(-c2ncnc3[nH]ccc23)s1)C(=O)NCCCCCC(=O)N[C@H](CCCNC(=N)N)C(=O)N[C@H](CCCNC(=N)N)C(=O)N[C@H](CCCNC(=N)N)C(=O)N[C@H](CCCNC(=N)N)C(=O)N[C@H](CCCNC(=N)N)C(=O)N[C@H](CCCNC(=N)N)C(=O)N[C@H](CCCCN)C(N)=O [ARC-1135] | subnanomolar or low nanomolar |  |
| N=C(N)NCCC[C@@H](NC(=O)CCCCCNC(=O)c1ccc(-c2ccnc(N)n2)[se]1)C(=O)NCCCCCC(=O)N[C@H](CCCNC(=N)N)C(=O)N[C@H](CCCNC(=N)N)C(=O)N[C@H](CCCNC(=N)N)C(=O)N[C@H](CCCNC(=N)N)C(=O)N[C@H](CCCNC(=N)N)C(=O)N[C@H](CCCNC(=N)N)C(=O)N[C@H](CCCCN)C(N)=O [ARC-1138] | subnanomolar or low nanomolar |  |
| O=S(=O)(NCCNC/C=C/c1ccc(Br)cc1)c1cccc2cnccc12 [H89] |  | luminescence from live cells loaded with ARC-1139 after Forskolin [2]: signal decreased |
| CN[C@@H]1C[C@H]2O[C@@](C)([C@@H]1OC)n1c3ccccc3c3c4c(c5c6ccccc6n2c5c31)C(=O)NC4 [staurosporine] |  | Dissociation half-lives of PKAc complexes (PKAc): 12 s |
